Reference: patent publication EP1134585B1, “Biosensor and method for the monitoring of herbicides” (CONSIGLIO NAZIONALE DELLE RICERCHE, priority 2000, dated 2001)

Key:
D1 protein Val219->Ile = D1 protein Val219->Ile (Chlamydomonas reinhardtii, UniProt P07753, V219I); settings: code Dr2; cited from earlier work
D1 protein Ala250->Arg = D1 protein Ala250->Arg (Chlamydomonas reinhardtii, UniProt P07753, A250R); settings: cited from earlier work
D1 protein Ala250->Asn = D1 protein Ala250->Asn (Chlamydomonas reinhardtii, UniProt P07753, A250N); settings: cited from earlier work
D1 protein A1a251→Gly = D1 protein A1a251→Gly (Chlamydomonas reinhardtii, UniProt P07753, A251G); settings: cited from earlier work
D1 protein Phe255->Tyr [1] = target: D1 protein Phe255->Tyr (Chlamydomonas reinhardtii, UniProt P07753, F255Y); settings: code Ar207+; cited from earlier work
D1 protein Phe255->Tyr [2] = target: D1 protein Phe255->Tyr (Synechococcus elongatus, UniProt P04996, F255Y); settings: Synachococcus PCC7942, code TyrS; cited from earlier work
[3] = target: D1 protein Phe211->Ile Met214->Gly (Chlamydomonas reinhardtii, UniProt P07753, F211I/M214G); settings: cited from earlier work
[4] = target: D1 protein Ala250→Ser Phe255→IIe (Chlamydomonas reinhardtii, UniProt P07753, A250S/F255I); settings: cited from earlier work
PS II = PS II treated with CdCl2, refrigeration at 5°C, flow 0,2-2,0 ml/m
Text: To further increase the stability of the biomediator the usefulness of a system for the refrigeration of the solution containing herbicide forwarded into the measuring cell experimentally was observed.

Tyr222->Phe = settings: code T4; cited from earlier work
D1 protein Ala250->Asp = D1 protein Ala250->Asp (Chlamydomonas reinhardtii, UniProt P07753, A250D); settings: cited from earlier work
D1 protein A1a250->Tyr = D1 protein A1a250->Tyr (Chlamydomonas reinhardtii, UniProt P07753, A250Y); settings: cited from earlier work
D1 protein Arg257->Val = D1 protein Arg257->Val (Synechocystis sp., UniProt P16033, R257V); settings: cited from earlier work
D1 protein Ser264->Ala [5] = target: D1 protein Ser264->Ala (Chlamydomonas reinhardtii, UniProt P07753, S264A); settings: codes MZ1 MZ3 MZ5; cited from earlier work
D1 protein Ser264->Ala [6] = target: D1 protein Ser264->Ala (Synechococcus elongatus, UniProt P04996, S264A); settings: Synechococcus sp. PCC7942, code Dil; cited from earlier work
D1 protein Ser264->Thr = settings: Euglena, code MSI; cited from earlier work
[7] = target: D1 protein Leu275->Phe (MZ4) (Chlamydomonas reinhardtii, UniProt P07753, L275F); settings: code MZ4; cited from earlier work
[8] = target: D1 protein Phe211→Gly Met214→Gln (Chlamydomonas reinhardtii, UniProt P07753, F211G/M214Q); settings: cited from earlier work
[9] = target: D1 protein Phe255->Tyr Ser264->Ala (Synechococcus elongatus, UniProt P04996, F255Y/S264A); settings: code D5; cited from earlier work
[10] = target: D1 protein Ser264→Ala Asn266→Thr (Chlamydomonas reinhardtii, UniProt P07753, N266T/S264A); settings: cited from earlier work
[11] = target: D1 protein I1e259->Ser Ser264->Ala Asn266->Thr (Chlamydomonas reinhardtii, UniProt P07753, I259S/N266T/S264A); settings: cited from earlier work

O=c1[nH]c2c(c(=O)n1C1CCCCC1)CCC2 [Lenacil]
Supersensitivity R/S (D1 protein Val219->Ile): Lenacil 0,8

CSc1nnc(C(C)(C)C)c(=O)n1N [Metribuzin]
Supersensitivity R/S (D1 protein Ala250->Arg): Metribuzin 0,5 | Supersensitivity R/S (D1 protein Ala250->Asn): Metribuzin 0,8 | Supersensitivity R/S (D1 protein A1a251→Gly): Metribuzin 0,6 | Supersensitivity R/S (D1 protein Phe255->Tyr [1]): Metribuzin 0,6 | Supersensitivity R/S (D1 protein Phe255->Tyr [2]): Metribuzin 0,8 | Supersensitivity R/S [3]: 0,5 | Supersensitivity R/S [4]: 0,5

N#Cc1cc(I)c(O)c(I)c1 [loxynil]
sensitivity (concentration) (PS II): one order of magnitude higher | Supersensitivity R/S (Tyr222->Phe): Iloxynil <0,01 | Supersensitivity R/S (D1 protein Ala250->Arg): loxynil 0,5 | Supersensitivity R/S (D1 protein Ala250->Asp): loxynil 0,2 | Supersensitivity R/S (D1 protein A1a250->Tyr): loxynil 0,8 | Supersensitivity R/S (D1 protein Arg257->Val): loxynil 0,8 | Supersensitivity R/S (D1 protein Ser264->Ala [5]): loxynil 0,5 | Supersensitivity R/S (D1 protein Ser264->Ala [6]): loxynil 0,4 | Supersensitivity R/S (D1 protein Ser264->Thr): loxynil 0,2 | Supersensitivity R/S [7]: locynil 0,2 | Supersensitivity R/S [8]: loxynil 0,8 | Supersensitivity R/S [4]: loxynil 0,2 | Supersensitivity R/S [9]: loxynil 0,5 | Supersensitivity R/S [10]: loxynil 0,8 | Supersensitivity R/S [11]: loxynil 0,13
